Data published in article PMC8096243 (Nucleic Acids Research, 2021).

Key:
Format in all cases: binding
EcCdnD [1] = molecular target: T1, EcCdnD (Enterobacter hormaechei, UniProt P0DSP4); assay: crystal structure
T1 sequence (P0DSP4 1-381): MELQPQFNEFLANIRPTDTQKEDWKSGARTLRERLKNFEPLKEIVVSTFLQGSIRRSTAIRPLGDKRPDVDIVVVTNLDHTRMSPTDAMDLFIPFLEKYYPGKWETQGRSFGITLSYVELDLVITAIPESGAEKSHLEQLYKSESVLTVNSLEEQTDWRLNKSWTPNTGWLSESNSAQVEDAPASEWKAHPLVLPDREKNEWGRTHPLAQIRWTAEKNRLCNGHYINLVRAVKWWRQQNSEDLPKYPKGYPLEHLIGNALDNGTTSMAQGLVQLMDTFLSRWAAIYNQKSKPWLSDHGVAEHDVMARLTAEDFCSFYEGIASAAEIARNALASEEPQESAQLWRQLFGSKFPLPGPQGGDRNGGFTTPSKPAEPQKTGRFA

EcCdnD [2] = molecular target: T1, EcCdnD; assay: crystal structure; remark: listed apart in the source
EcCdnD [3] = molecular target: T1, EcCdnD; assay: ITC, single site

Nc1ncnc2c1ncn2[C@H]1CC[C@@H](CO[P@@](=O)(O)O[P@](=O)(O)OP(=O)(O)O)O1 [ddATP]
crystal structure (2.09 Å) (EcCdnD [1]): the ddATP occupied the binding site for the donor substrate

Nc1ncnc2c1ncn2[C@@H]1O[C@H](COP(=O)(O)OP(=O)(O)O)[C@@H](O)[C@H]1O [ADP]
crystal structure (1.87 Å), together with donor ATP (EcCdnD [2]): The diphosphate group makes seven hydrogen bonds with Arg109, Arg197 and Arg307

Nc1nc2c(ncn2[C@@H]2O[C@H](COP(=O)(O)O[C@H]3[C@@H](O)[C@H](n4cnc5c(N)ncnc54)O[C@@H]3COP(=O)(O)OP(=O)(O)OP(=O)(O)O)[C@@H](O)[C@H]2O)c(=O)[nH]1 [5′-pppApG-3′]
Kd (EcCdnD [3]): 29.7 ± 2.2 µM
